According to PubChem BioAssay (NCI):
Where “and” joins values, the source holds several entries; their conditions need not be identical. Identical values can stand only once.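 Where inhibition never reached the appropriate level, the endpoint shown equals the highest concentration tested. Otherwise, values were interpolated linearly from a five-concentration, 48-hour dose response in 96-well plates. Here, GI50 denotes the concentration required for 50% inhibition of growth. TGI: total growth inhibition.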

How the values were obtained:
Test in all cases: inhibition of tumour cell growth, NCI panel, 48 h
SF-268 CNS = tested on: SF-268 CNS
786-0 renal = tested on: 786-0 renal
M14 melanoma = tested on: M14 melanoma
UACC-257 melanoma = tested on: UACC-257 melanoma
MALME-3M melanoma = tested on: MALME-3M melanoma
T-47D breast = tested on: T-47D breast
HCT-116 colon = tested on: HCT-116 colon
BT-549 breast = tested on: BT-549 breast

Structure (SMILES): CC(=O)Nc1ccccc1C=C1c2ccccc2-c2ccccc21
- TGI (SF-268 CNS): > 100 µM
- TGI (786-0 renal): 45.2 µM
- TGI (M14 melanoma): > 100 µM
- TGI (UACC-257 melanoma): > 100 µM
- TGI (MALME-3M melanoma): > 100 µM
- TGI (T-47D breast): > 100 µM
- TGI (HCT-116 colon): > 100 µM
- TGI (BT-549 breast): 98.3 µM

Structure (SMILES): NC(=O)c1cc([N+](=O)[O-])c(Cl)c([N+](=O)[O-])c1
- GI50 (SF-268 CNS): 4.66 µM
- TGI (SF-268 CNS): 16.2 µM
- GI50 (786-0 renal): 1.96 µM
- TGI (786-0 renal): 3.56 µM
- GI50 (M14 melanoma): 1.91 µM
- TGI (M14 melanoma): 4.72 µM
- GI50 (UACC-257 melanoma): 3.87 µM
- TGI (UACC-257 melanoma): 15 µM
- GI50 (MALME-3M melanoma): 2.27 µM
- TGI (MALME-3M melanoma): 4.54 µM
- GI50 (T-47D breast): 2.32 µM
- TGI (T-47D breast): 5.12 µM
- GI50 (HCT-116 colon): 1.91 µM
- TGI (HCT-116 colon): 3.53 µM
- GI50 (BT-549 breast): 2.52 µM
- TGI (BT-549 breast): 5.56 µM

Structure (SMILES): Cn1c(=O)c(Oc2ccc(F)cc2F)cc2cnc(NC(CO)CO)nc21
- GI50 (SF-268 CNS): > 25 µM
- TGI (SF-268 CNS): > 25 µM
- GI50 (786-0 renal): > 25 µM
- TGI (786-0 renal): > 25 µM
- GI50 (M14 melanoma): > 25 µM
- TGI (M14 melanoma): > 25 µM
- GI50 (UACC-257 melanoma): > 25 µM
- TGI (UACC-257 melanoma): > 25 µM
- GI50 (MALME-3M melanoma): > 25 µM
- TGI (MALME-3M melanoma): > 25 µM
- GI50 (T-47D breast): > 25 µM
- TGI (T-47D breast): > 25 µM
- GI50 (HCT-116 colon): > 25 µM
- TGI (HCT-116 colon): > 25 µM
- GI50 (BT-549 breast): > 25 µM
- TGI (BT-549 breast): > 25 µM

Structure (SMILES): N=c1c2c(-c3ccccc3)c(-c3ccccc3)n(Cc3ccccc3)c2ncn1CCCO
- GI50 (SF-268 CNS): 0.894 µM
- TGI (SF-268 CNS): 20.8 µM
- GI50 (786-0 renal): 1.92 µM
- TGI (786-0 renal): 16.2 µM
- GI50 (M14 melanoma): 2 µM
- TGI (M14 melanoma): 6.54 µM
- GI50 (UACC-257 melanoma): 1.75 µM
- TGI (UACC-257 melanoma): 5.17 µM
- GI50 (MALME-3M melanoma): 1.55 µM
- TGI (MALME-3M melanoma): 3.84 µM
- GI50 (T-47D breast): 3.13 µM
- TGI (T-47D breast): 18.1 µM
- GI50 (HCT-116 colon): 0.406 µM
- TGI (HCT-116 colon): 4.84 µM
- GI50 (BT-549 breast): 7.81 µM
- TGI (BT-549 breast): 21.2 µM

Structure (SMILES): CN(c1ccc(NC(=O)Nc2ccc(OC(F)(F)F)cc2)cc1)c1ccnc(Nc2cccc(S(N)(=O)=O)c2)n1
- GI50 (SF-268 CNS): 2.34 µM
- TGI (SF-268 CNS): 6.74 µM
- GI50 (786-0 renal): 5.25 µM
- TGI (786-0 renal): 12 µM
- GI50 (M14 melanoma): 3.39 µM
- TGI (M14 melanoma): 8.03 µM
- GI50 (UACC-257 melanoma): 3.77 µM
- TGI (UACC-257 melanoma): 9.14 µM
- GI50 (MALME-3M melanoma): 3.84 µM
- TGI (MALME-3M melanoma): 8.34 µM
- GI50 (T-47D breast): 3.51 µM
- TGI (T-47D breast): 9.35 µM
- GI50 (HCT-116 colon): 1.73 µM
- TGI (HCT-116 colon): 5.7 µM
- GI50 (BT-549 breast): 4.31 µM
- TGI (BT-549 breast): 8.3 µM

Structure (SMILES): C[C@]12CC[C@@H]3c4ccc(O)cc4CC[C@H]3[C@@H]1CC[C@@H]2NS(=O)(=O)c1cccc(C(F)(F)F)c1
- GI50 (SF-268 CNS): 4.52 µM
- TGI (SF-268 CNS): 18.5 µM
- GI50 (786-0 renal): 3.06 µM
- TGI (786-0 renal): 8.95 µM
- GI50 (M14 melanoma): 3.88 µM
- TGI (M14 melanoma): 13.9 µM
- GI50 (UACC-257 melanoma): 3.54 µM
- TGI (UACC-257 melanoma): 15.7 µM
- GI50 (MALME-3M melanoma): 2.83 µM
- TGI (MALME-3M melanoma): 8.65 µM
- GI50 (T-47D breast): 3.65 µM
- TGI (T-47D breast): 13.4 µM
- GI50 (HCT-116 colon): 2.61 µM
- TGI (HCT-116 colon): 7.12 µM
- GI50 (BT-549 breast): 2.7 µM
- TGI (BT-549 breast): 7.48 µM

Structure (SMILES): Cn1ccnc1C(=O)/C=C/c1ccc(CC(=O)Nc2ccc(S(F)(F)(F)(F)F)cc2)cc1
- GI50 (SF-268 CNS): 1.88 µM
- TGI (SF-268 CNS): 4.86 µM
- GI50 (786-0 renal): 0.788 µM
- TGI (786-0 renal): 3 µM
- GI50 (M14 melanoma): 3.16 µM
- TGI (M14 melanoma): 6.55 µM
- GI50 (UACC-257 melanoma): 4.35 µM
- TGI (UACC-257 melanoma): 10.5 µM
- GI50 (MALME-3M melanoma): 2.95 µM
- TGI (MALME-3M melanoma): 6.65 µM
- GI50 (T-47D breast): 3.1 µM
- TGI (T-47D breast): 10.4 µM
- GI50 (HCT-116 colon): 0.823 µM
- TGI (HCT-116 colon): 2.87 µM
- GI50 (BT-549 breast): 2.5 µM
- TGI (BT-549 breast): 5.29 µM

Structure (SMILES): COc1cc2c3c(n(CCCNCC(OC)OC)c(=O)c2cc1OC)-c1cc2c(cc1C3=O)OCO2
- GI50 (SF-268 CNS): 1.05 µM
- TGI (SF-268 CNS): > 55.1 µM
- GI50 (786-0 renal): 0.274 µM
- TGI (786-0 renal): 8.75 µM
- GI50 (M14 melanoma): 0.345 µM
- TGI (M14 melanoma): > 37.2 µM
- GI50 (UACC-257 melanoma): 33.3 µM
- TGI (UACC-257 melanoma): > 89.2 µM
- GI50 (MALME-3M melanoma): 21 µM
- TGI (MALME-3M melanoma): 47.6 µM
- GI50 (HCT-116 colon): 0.0172 µM
- TGI (HCT-116 colon): 1.31 µM
- GI50 (BT-549 breast): 4.06 µM
- TGI (BT-549 breast): > 29.6 µM

Structure (SMILES): O=C1Nc2ccccc2C1Cc1ccc([N+](=O)[O-])cc1 (stereo not drawn)
- TGI (SF-268 CNS): > 100 µM
- TGI (786-0 renal): > 100 µM
- TGI (M14 melanoma): > 100 µM
- TGI (UACC-257 melanoma): > 100 µM
- TGI (T-47D breast): > 100 µM
- TGI (HCT-116 colon): > 100 µM
- TGI (BT-549 breast): > 100 µM

Structure (SMILES): CCCCCCC#Cc1ccccc1C#CCO
- GI50 (SF-268 CNS): 30.6 µM
- TGI (SF-268 CNS): 65.2 µM
- GI50 (786-0 renal): 31.3 µM
- TGI (786-0 renal): 96.1 µM
- GI50 (M14 melanoma): 28.4 µM
- TGI (M14 melanoma): 74.9 µM
- GI50 (UACC-257 melanoma): 26.5 µM
- TGI (UACC-257 melanoma): 62.7 µM
- GI50 (T-47D breast): 16.3 µM
- TGI (T-47D breast): 35.1 µM
- GI50 (HCT-116 colon): 23.4 µM
- TGI (HCT-116 colon): 49.6 µM
- GI50 (BT-549 breast): 17 µM
- TGI (BT-549 breast): 32.9 µM

Structure (SMILES): COc1ccc(-c2cnnn2-c2cc(OC)c3c(c2)OCO3)cc1
- GI50 (SF-268 CNS): 0.775 µM
- TGI (SF-268 CNS): > 100 µM
- GI50 (786-0 renal): 0.544 µM
- TGI (786-0 renal): > 36.6 µM
- GI50 (M14 melanoma): 0.0537 µM
- TGI (M14 melanoma): > 100 µM
- GI50 (UACC-257 melanoma): 35.4 µM
- TGI (UACC-257 melanoma): > 100 µM
- GI50 (HCT-116 colon): 0.0596 µM
- TGI (HCT-116 colon): > 42.3 µM
- GI50 (BT-549 breast): 0.101 µM
- TGI (BT-549 breast): 28.6 µM

Structure (SMILES): Cc1nn(-c2ccccc2)c2c1CC(=O)Nc1ccccc1-2
- GI50 (SF-268 CNS): 0.623 µM
- TGI (SF-268 CNS): > 100 µM
- GI50 (786-0 renal): 0.57 µM
- TGI (786-0 renal): > 100 µM
- GI50 (M14 melanoma): 0.188 µM
- TGI (M14 melanoma): > 100 µM
- GI50 (UACC-257 melanoma): 0.273 µM
- TGI (UACC-257 melanoma): > 100 µM
- GI50 (MALME-3M melanoma): 0.432 µM and 0.0872 µM
- TGI (MALME-3M melanoma): > 100 µM
- GI50 (HCT-116 colon): 0.322 µM

Structure (SMILES): CC(CN1CCN(C)CC1)CN1c2ccccc2Sc2ccc(C(F)(F)F)cc21 (stereo not drawn)
- GI50 (SF-268 CNS): 3.1 µM
- TGI (SF-268 CNS): 9.29 µM
- GI50 (786-0 renal): 1.66 µM
- TGI (786-0 renal): 3.12 µM
- GI50 (M14 melanoma): 1.75 µM
- TGI (M14 melanoma): 3.25 µM
- GI50 (UACC-257 melanoma): 1.89 µM
- TGI (UACC-257 melanoma): 3.81 µM
- GI50 (MALME-3M melanoma): 1.72 µM
- TGI (MALME-3M melanoma): 3.72 µM
- GI50 (T-47D breast): 1.89 µM
- TGI (T-47D breast): 4.55 µM
- GI50 (HCT-116 colon): 1.68 µM
- TGI (HCT-116 colon): 3.07 µM

Structure (SMILES): NC(=NC1CCCCCCC1)c1ccc(N2CCN(c3ccc(C(N)=NC4CCCCCCC4)cc3)CC2)cc1
- GI50 (SF-268 CNS): 16.7 µM
- TGI (SF-268 CNS): 42.7 µM
- GI50 (786-0 renal): 18.9 µM
- TGI (786-0 renal): > 100 µM
- GI50 (M14 melanoma): 30.8 µM
- TGI (M14 melanoma): > 100 µM
- GI50 (T-47D breast): 25.8 µM
- TGI (T-47D breast): > 100 µM

Structure (SMILES): C=CCNCCCN1C(=O)c2ccc3c4c(ccc(c24)C1=O)C(=O)N(CCCNCC=C)C3=O
- GI50 (SF-268 CNS): 0.557 µM
- TGI (SF-268 CNS): 4.41 µM
- GI50 (786-0 renal): 0.831 µM
- TGI (786-0 renal): 4.7 µM
- GI50 (M14 melanoma): 0.47 µM
- TGI (M14 melanoma): 1.66 µM
- GI50 (UACC-257 melanoma): 0.333 µM
- TGI (UACC-257 melanoma): 1.2 µM
- GI50 (MALME-3M melanoma): 0.258 µM
- TGI (MALME-3M melanoma): 0.617 µM
- GI50 (HCT-116 colon): 0.279 µM
- TGI (HCT-116 colon): 3.39 µM
- GI50 (BT-549 breast): 1.78 µM
- TGI (BT-549 breast): 3.63 µM

Structure (SMILES): O=C1CC(c2ccc3c(c2)OCO3)Nc2cc3c(cc21)OCO3 (stereo not drawn)
- GI50 (SF-268 CNS): 0.83 µM
- TGI (SF-268 CNS): > 100 µM
- GI50 (786-0 renal): 0.778 µM
- TGI (786-0 renal): 36.3 µM
- GI50 (UACC-257 melanoma): 21.3 µM
- TGI (UACC-257 melanoma): 83 µM
- GI50 (HCT-116 colon): 1.27 µM
- TGI (HCT-116 colon): > 100 µM
- GI50 (BT-549 breast): 3.24 µM
- TGI (BT-549 breast): > 100 µM
